Assay results reported in patent US20220233238A1, “DELIVERY CATHETER AND METHOD OF DISEASE TREATMENT” (Neurotronic, Inc., priority 2019, published 2022).
Values joined by “and” are separate entries in the source; they are usually repeats but may differ in a detail not shown here. Equal values may be shown once. “Also recorded” adds a separate entry of the source. Read-outs that look alike come from different tables or passages of the source.

Tests used:
[1] = tested on: renal arteries, hepatic artery, splenic artery, and the left gastric artery; details: patient A; for Body weight: base 103 kg; for 24-Hour blood pressure, DBP / 24-Hour blood pressure, SBP: average 24-hour ambulatory; for 24-Hour blood pressure, DBP: base 109; for 24-Hour blood pressure, SBP: base 164; for High-density lipoprotein (HDL): base 39 mg/dL; for Triglycerides: base 336 mg/dL
Method: The targeted arteries for their treatment were renal arteries, hepatic artery, splenic artery, and the left gastric artery.
In the procedure, modest sedation per the institution's standard practice was used and no general anesthesia was used. The arteries were engaged using a 7F guiding catheter, introduced via the femoral artery. Angiography was performed of the arteries before intervention. All four arteries were treated in the same procedure. The treatment started at upper body arteries in the order of splenic, hepatic, left gastric, left renal, and right renal arteries. After the initial angiography survey of the hepatic artery, splenic artery and left gastric artery, the rapid-exchange version of the triple-needle single-balloon catheter was advanced through the guiding catheter and into the artery over a guiding wire.
The maximum catheter needle span diameter was about 12 mm, and the span diameter was adjustable per artery diameter. […] The function of this balloon was to center the distal head/shaft without over-stretching the artery.
The infusion time was within 10 seconds for each application. […] The treatment steps were repeated for the second treatment (balloon inflation, needle deployment, infusion ablation, needle withdrawal, balloon deflation). The total volume of the alcohol used in the two treatments was 1.2 mL for the splenic artery.
The same treatment method and procedure steps as in the treatment of the splenic artery were used for common hepatic artery ablation. The catheter was replaced with a fresh catheter for the common hepatic artery ablation. There were two treatments total at about 15 mm apart of each other (between the treatment sites) for the common hepatic artery with the same ablation dosage of 0.6 mL. The total volume of the alcohol used for the hepatic artery ablation was 1.2 mL. After the hepatic treatment, the catheter was placed into the left gastric artery for next ablation treatment. Again, the same treatment method and procedure was used, with the exception that one ablation treatment of 0.6 mL of the alcohol was applied for the left gastric artery. Angiography was performed after the withdrawal of the triple-needle balloon delivery catheter.
After the ablation treatments of the three arteries above, angiography was performed of the renal arteries before intervention. The suitable branches and main arteries were assessed and predetermined for treatment. After the assessment, the triple-needle balloon delivery catheter was advanced through the guiding catheter and over the guiding wire into the branch artery of left renal arteries and stopped just beyond the bifurcated area.

[2] = tested on: hepatic, splenic, celiac, right renal and left renal arteries; details: patient B; for fasting glucose: base 186 mg/dL
Method: (§1) In another example, multiple arteries/tissues were treated for hypertension. […] Patient B had 5 years of hypertension history. Patient B went through the same procedure and ablation treatment method as patient A in Example 3.
In another example, multiple arteries/tissues were treated for diabetes.

renal artery = experiment: Pre-clinical trial: renal artery ethanol ablation (renal denervation) with triple-needle single-balloon catheter
[3] = tested on: hepatic, splenic, celiac, right renal and left renal arteries; details: patient B; for average 24-hour ambulatory blood pressure, DBP: base 79; for average 24-hour ambulatory blood pressure, SBP: base 136
Method: as §1

hepatic artery = experiment: Pre-clinical trial: hepatic artery ethanol ablation (hepatic denervation) with triple-needle single-balloon catheter
[4] = tested on: hepatic, splenic, celiac, right renal and left renal arteries; details: patient B; for Body weight: base 83 kg
Method: as §1
In another example, multiple arteries/tissues were treated for managing body weight. The patient B with 3 years of obesity history had their body weight improved after the ablation procedure. The treated multiple arteries were hepatic, splenic, celiac, right renal and left renal arteries.

[5] = maintained at 3 months follow-up

renal arterial spasms (post-ablation renal angiograms) (renal artery; during and after the infusion treatment): no significant renal arterial spasms
arterial spasms (hepatic angiograms) (hepatic artery; during and after the infusion treatment, both animals): no significant arterial spasms
Structure (SMILES): CCO [ethanol]
Body weight ([1]; 1 mo post-procedure): 95.6 kg
24-Hour blood pressure, DBP ([1]; 1 mo): 87 mmHg
24-Hour blood pressure, SBP ([1]; 1 mo): 140 mmHg
High-density lipoprotein (HDL) ([1]; 1 mo): 43 mg/dL
Triglycerides ([1]; 1 mo): 139 mg/dL
Body weight ([1]; 2 wk post-procedure): 96.2 kg
High-density lipoprotein (HDL) ([1]; 2 wks): 42 mg/dL
Triglycerides ([1]; 2 wks): 160 mg/dL
TG/HDL ratio ([1]; 3-month follow-up, 8.6 at baseline, normal range <5): 4.2
24-Hour blood pressure, DBP ([1]; 3 mo): 84 mmHg
24-Hour blood pressure, SBP ([1]; 3 mo): 141 mmHg
HbA1c value change vs baseline ([1]; 3 months follow-up, absolute change): ~−1%
Body weight ([1]; 3 mos post-procedure): 96.2 kg
High-density lipoprotein (HDL) ([1]; 3 mos): 40 mg/dL
Triglycerides ([1]; 3 mos): 167 mg/dL
Blood sugar level, HbA1c ([1]; 3 mos, base 7.5%): 6.6%
weight loss, reduction ([1]; since week 3 (2 wk time point), maintained at 3 months): about 7%
triglyceride level reduction ([1]; two weeks follow-up): about 50%
diastolic (DBP) blood pressure drop from the baseline [1, 5]: ~20%
systolic (SBP) blood pressure drop from the baseline [1, 5]: about 14%
fasting glucose level change from baseline ([2]; 1-month follow-up): −50%
fasting glucose ([2]; 1 mo): 92 mg/dL
fasting glucose level change from baseline ([2]; 2 weeks follow-up): −32%
fasting glucose ([2]; 2 wks): 127 mg/dL
HbA1c improvement from the baseline, absolute value ([2]; 3 months after the procedure): −2.1%
HbA1c percent reduction ([2]; 3 months after the procedure, relative to baseline): ~26%
fasting glucose level reduction from the baseline ([2]; 3 months follow-up): −41%
fasting glucose ([2]; 3 mos): 110 mg/dL
Blood sugar HbA1c ([2]; 3 mos, base 8.1%): 6.0%
histopathologic evaluation of renal arteries and surrounding tissues (renal artery; after ethanol ablation, FIG. 11): renal nerve injury; also recorded: severed renal nerves necrosis
average renal tissue NE content, treated side (renal artery; porcine renal cortex, two weeks after treatment, HPLC, control side 87 ng/g): 4.9 ng/g
reduction in renal norepinephrine concentration (renal artery; porcine, two weeks after treatment, treated side vs contralateral untreated renal artery side (control 87 ng/g), total 1.8 mL): 94%
gross necropsy (renal artery; two weeks after treatment): all treatment related organs were normal
average 24-hour ambulatory blood pressure, DBP ([3]; 1 mo): 61 mmHg
average 24-hour ambulatory blood pressure, SBP ([3]; 1 mo): 107 mmHg
diastolic (DBP) blood pressure drop from the baseline ([3]; 1 month follow-up): ~23%
systolic (SBP) blood pressure drop from the baseline ([3]; 1 month follow-up): about 21%
average 24-hour ambulatory blood pressure, DBP ([3]; 3-mo): 66 mmHg
average 24-hour ambulatory blood pressure, SBP ([3]; 3-mo): 115 mmHg
DBP percentage drop from baseline level ([3]; 3 month follow-up): about 15%
SBP percentage drop from baseline level ([3]; 3 month follow-up): about 15%
average liver NE concentration reduction (hepatic artery; one value per animal (two animals), two weeks after treatment, vs untreated control animal, 2 x 0.6 mL): 85% and 94%
gross necropsy (hepatic artery; two weeks after the treatment): all treatment related organs were normal
Body weight ([4]; 1 mo): 79.9 kg
initial body weight loss from the baseline ([4]; 2 weeks follow-up): −4.5%
Body weight ([4]; 2 wks): 79.3 kg
Body weight ([4]; 3 mos): 79.1 kg
